Patent US12144886B2, “Perineural administration of resiniferatoxin for treatment of maladaptive pain” (Sorrento Therapeutics, Inc., priority 2018, dated 2024)

Assays:
[1] = tested on: Crl:CD(SD) Sprague Dawley rats; assay: Single dose nerve block injection safety study in rats with 14-day recovery; assay type: in vivo, rat; conditions: for Food consumption: Days 2 to 7
Excerpt: This study was directed to determining the safety of administering RTX, when given as a nerve block injection as a single dose to rats.
119 male and 119 female Crl:CD(SD) Sprague Dawley rats were obtained from Charles River Laboratories, Raleigh, NC. The animals were 10 weeks old and weighed between 212 and 482 g at the initiation of dosing.
The nerve block injection doses were given into the right thigh. The animals were temporarily restrained for dose administration. Animals were sedated via isoflurane inhalation for dose administration. The day of dosing for each animal was designated as Day 1. A necropsy was conducted for a recovery study animal that died on study, and specified tissues were retained. The animal was refrigerated prior to necropsy to minimize autolysis.
Toxicokinetic animals surviving until scheduled euthanasia were euthanized by carbon dioxide inhalation.
Main study and recovery animals were subjected to a complete necropsy examination. A board-certified veterinary pathologist was available for scheduled necropsies.
All statistical tests were conducted at the 5% significance level. All pairwise comparisons were conducted using two-sided tests.
The groups were compared using an overall one-way ANOVA F-test if Levene's test was not significant or the Kruskal-Wallis test if it was significant. […] Datasets with two groups were compared using a Dunnett's test (equivalent to t-test in Nevis 2012 tables) or Dunn's test (equivalent to Wilcoxon Rank-Sum test in Nevis 2012 tables).

[2] = tested on: declawed cat with maladaptive pain; assay: Physical exam and behavioral findings in a declawed cat after perineural RTX; assay type: in vivo; conditions: one cat
Method: Tolerance, safety, and analgesic effects of RTX administration were evaluated in a single declawed cat with maladaptive pain. […] The cat also presented a self-limiting decreased appetite for 12 hours post injection.
A summary of the pre- and post-RTX injection physical exam results relevant to pain related to the declawed digits are presented in Table 4.
Additionally, the cat had shown elimination behavior issues, aggressivity when manipulated, and diminished attention seeking before treatment. Each of these behavioral issues related to the chronic maladaptive pain state reversed following the perineural administration of RTX, even though the cat was believed to have been in pain for years prior to this treatment.

[3] = 10 μg, both sexes, terminal euthanasia

## C=C(C)[C@]12C[C@@H](C)[C@@]34O[C@](Cc5ccccc5)(O[C@@H]1[C@@H]3C=C(COC(=O)Cc1ccc(O)c(OC)c1)C[C@]1(O)C(=O)C(C)=C[C@@H]41)O2 [RTX, resiniferatoxin]
[1]; 2.5 μg, females only
  Food consumption: statistically significant decrease
[1]; 2.5 μg, one recovery study female, unrelated to test article, attributed to aspiration-related foreign material/inflammation in the lung
  Unscheduled death: found dead on Day 2
[1]; 10 μg
  Microscopic change in the skeletal muscle: myofiber degeneration/necrosis
[1]; 10 μg, both sexes
  Spleen microscopic correlate: minimal decreased lymphoid cellularity of the white pulp
  Thymus microscopic correlate: minimal to mild decreased lymphoid cellularity
[1]; [3]
  Spleen weights: Statistically significant lower absolute and relative spleen weights
  Thymic weights: Lower absolute and relative thymic weights
[1]; 10 μg, females only
  Neutrophils: statistically significant increase that remained increased after the recovery period
[1]; 10 μg, females, Days 1 to 14
  Mean body weight gain: statistically significant decrease
[1]; 10 μg, males only
  Food consumption: statistically significant decrease
[1]; 10 μg, males, Days 1 to 2
  Mean body weight gain: statistically significant decrease
[1]; >2.5 μg
  Microscopic change in the mammary gland (non-adverse): single cell necrosis
[1]; end of the recovery period (Day 15)
  Test article-related organ weight changes at end of recovery: not observed
[1]; following a 14-day recovery period
  Reversibility of microscopic changes: fully recovered
[1]; rats
  Clinical chemistry parameters: no adverse RTX (resiniferatoxin)-related changes
[1]; rats, 0.625, 2.5, and 10 μg single dose
  Tolerability as nerve block injection: well tolerated
[1]; rats, all dose groups
  Differences in hematology, coagulation, clinical chemistry and urinalysis parameters: not considered adverse or were not considered vehicle or test article related
[1]; rats, single nerve block injection
  no-observed-adverse-effect level (NOAEL): 10 µg
[1]; single dose 0, 0.625, 2.5, or 10 μg
  Mortality, organ weight, gross observations: no test article-related mortality, differences in organ weight, or gross observations
[1]; terminal euthanasia or recovery period animals
  Gross findings: No test article-related gross findings
[2]; following perineural administration
  Behavioral issues (elimination behavior issues, aggressivity when manipulated, diminished attention seeking): reversed
[2]; 2.5 μg/forelimb perineural
  Overall conclusion from CSOM and FMPI scores: safe and effective
  Persistence of effects: at least 14 days
